Assay results reported in patent publication US12024510B2, “Pyrazolopyridine-diamides, their use as insecticide and processes for preparing the same” (PI INDUSTRIES LTD., priority 2017, dated 2024).

The compounds below were run on Plutella xylostella (assay: whole plant or invertebrate). Conditions: foliar, cabbage leaf dip, second instar larvae, dead and moribund combined, 72 h after release.
Format: in vivo
Description: (§1) Test Solutions were Prepared According to the Procedure Described Herein Below (500 PPM):
(§2) • 1. Eppendorf Vortex mixer (ThermoMixer C) and 1.5 mL Eppendorf tubes • 2. Zirconia (Zirconium-Yttrium) beads having diameter of 0.8 to 1.0 mm • 3. Microscope • 4. Beaker 100 mL • 5. Micro-pipette Reagents: • 1. Surfactant Solution • 2. De-mineralized (DM) Water • 1. Weigh 10 mg of the compound of the present invention to be tested in an Eppendorf Tube. • 2. Add 200 mg of the Surfactant Solution into the tube. • 3. Add 600 mg of Zirconia beads into the above mixture. • 4. Fix the tube in Eppendorf Vortex mixer and start vortexing at 2000 rpm. • 5. Mix on Vortex mixer for 30 minutes. After 30 minutes, observe the sample over a microscope at 400× resolution. • 6. If the Maximum particle size is more than 5 μm or average particle size is more than 2 μm or the particle size distribution is uneven, continue vortexing for another 30 minutes and again check the particle size using the microscope. Continue till the average particle size is below 2 microns. • 7. When the required particle size is achieved, add 1.0 mL DM water into the tube, close the cap, shake the tube thoroughly and transfer the contents, along with the beads, into a beaker. • 8. To rinse the tube, add another 1.0 mL of DM water into the tube, close the cap, shake well and transfer this into the same beaker. • 9. Repeat Step no. 8 one more time so that the tube is rinsed well and the compound of the present invention to be tested is transferred to the beaker. • 10. Add 16.8 mL of DM water into the beaker and stir well. • 11. The homogeneous dispersion can then be decanted into a glass vial, immediately, to separate the Zirconia beads. • 12. Immediately use this sample for biological testing. • 13. Further dilutions can be prepared by taking appropriate quantity of the aliquot of Step 10, immediately after stirring, and diluting as per requirement. The sample solution must be well mixed just before biological testing.
Leaf dip method was used for screening, wherein the required quantity of the compounds were weighed and dissolved in the test solution into the tube and vortex at 2000 rpm with Zirconia beads for 90 min for proper mixing, then mixed with 0.01% Triton-X solution to get the desired test concentration. Cabbage leaves were dipped in the solution for 10 seconds, shade dried for 20 min and then transferred to bioassay trays. Single second instar larva was released into each cell and the tray was covered with lid. The bio-assay trays were kept under laboratory conditions at a temperature of 25° C. and relative humidity of 70%. Observations on dead, moribund and live larvae were recorded at 72 h after the release. Percent mortality was calculated by combining dead and moribund larvae. The following compound num.
Work on `CCNC(=O)c1c(NC(=O)c2cc(C(F)(F)F)nn2-c2ncccc2Cl)c(Br)cc2ccnn12` [Compound 127, 5-bromo-6-(1-(3-chloropyridin-2-yl)-3-(trifluoromethyl)-1H-pyrazole-5-carboxamido)-N-ethylpyrazolo[1,5-a]pyridine-7-carboxamide] yielded a mortality at 300 ppm greater than 70%.
`CCONC(=O)c1c(NC(=O)c2cc(OCC(F)(F)F)nn2-c2ncccc2Cl)c(C)cc2ccnn12` [Compound 115, 6-(1-(3-chloropyridin-2-yl)-3-(2,2,2-trifluoroethoxy)-1H-pyrazole-5-carboxamido)-N-ethoxy-5-methylpyrazolo[1,5-a]pyridine-7-carboxamide] gave a mortality at 300 ppm greater than 70%.
Compound `Cc1cc2ccnn2c(C(=O)NC2(C)COC2)c1NC(=O)c1cc(Br)nn1-c1ncccc1Cl` [Compound 173, 6-(3-bromo-1-(3-chloropyridin-2-yl)-1H-pyrazole-5-carboxamido)-5-methyl-N-(3-methyloxetan-3-yl)pyrazolo[1,5-a]pyridine-7-carboxamide] has a mortality at 300 ppm greater than 70%.
For `COc1cc(C(=O)Nc2c(C)cc3ccnn3c2C(=O)NC(C)CCC(C)C)n(-c2ncccc2Cl)n1` (centres unmarked) [Compound 210, 6-(1-(3-chloropyridin-2-yl)-3-methoxy-1H-pyrazole-5-carboxamido)-5-methyl-N-(5-methylhexan-2-yl)pyrazolo[1,5-a]pyridine-7-carboxamide], the mortality at 300 ppm was greater than 70%.
In the case of `CCC(CC)NC(=O)c1c(NC(=O)c2cc(Br)nn2-c2ncccc2Cl)c(C)cc2ccnn12` [Compound 185, 6-(3-bromo-1-(3-chloropyridin-2-yl)-1H-pyrazole-5-carboxamido)-5-methyl-N-(pentan-3-yl)pyrazolo[1,5-a]pyridine-7-carboxamide], the mortality at 300 ppm is reported as greater than 70%.
`COCCNC(=O)c1c(NC(=O)c2cc(C(F)(F)F)nn2-c2ncccc2Cl)c(C)cc2ccnn12` [Compound 118, 6-(1-(3-chloropyridin-2-yl)-3-(trifluoromethyl)-1H-pyrazole-5-carboxamido)-N-(2-methoxyethyl)-5-methylpyrazolo[1,5-a]pyridine-7-carboxamide] was tested, and the mortality at 300 ppm was greater than 70%.
In the case of `CCCNC(=O)c1c(NC(=O)c2cc(OCC(F)(F)F)nn2-c2ncccc2Cl)c(C)cc2ccnn12` [Compound 11, 6-(1-(3-chloropyridin-2-yl)-3-(2,2,2-trifluoroethoxy)-1H-pyrazole-5-carboxamido)-5-methyl-N-propylpyrazolo[1,5-a]pyridine-7-carboxamide], the mortality at 300 ppm is reported as greater than 70%.
`CCC(COC)NC(=O)c1c(NC(=O)c2cc(Br)nn2-c2ncccc2Cl)c(C)cc2ccnn12` (centres unmarked) [Compound 192, 6-(3-bromo-1-(3-chloropyridin-2-yl)-1H-pyrazole-5-carboxamido)-N-(1-methoxybutan-2-yl)-5-methylpyrazolo[1,5-a]pyridine-7-carboxamide] gave a mortality at 300 ppm greater than 70%.
Work on `C#CCNC(=O)c1c(NC(=O)c2cc(OCC(F)(F)F)nn2-c2ncccc2Cl)c(C)cc2ccnn12` [Compound 48, 6-(1-(3-chloropyridin-2-yl)-3-(2,2,2-trifluoroethoxy)-1H-pyrazole-5-carboxamido)-5-methyl-N-(prop-2-yn-1-yl)pyrazolo[1,5-a]pyridine-7-carboxamide] yielded a mortality at 300 ppm greater than 70%.

These compounds were tested on Helicoverpa armigera (assay: Helicoverpa armigera diet incorporation method). Conditions: third instar larvae, dead and moribund combined, 96 h after release.
Format: in vivo
Description: as §1, §2
Diet incorporation method was used, in which and semi-synthetic diet was incorporated into the test solution when the temperature is approximately 50° C. in the bioassay containers and stirred thoroughly for properly mixing and then was allowed to cool for 30 min. The solidified diet was cut into equal pieces, and then each piece was transferred in one cell in Bio-assay trays. A single third instar starved larva was released into each of these cells of bioassay trays and the tray was covered with the lid. The bio-assay trays were kept under laboratory conditions at a temperature of 25° C. and Relative Humidity of 70%. Observations on dead, moribund and live larvae were recorded at 96 h after the release of larvae. Percent mortality was calculated by combining dead and moribund larvae. The following compound numbers
In the case of `CONC(=O)c1c(NC(=O)c2cc(OC)nn2-c2ncccc2Cl)c(Br)cc2ccnn12` [Compound 124, 5-bromo-6-(1-(3-chloropyridin-2-yl)-3-methoxy-1H-pyrazole-5-carboxamido)-N-methoxypyrazolo[1,5-a]pyridine-7-carboxamide], the mortality at 300 ppm is reported as greater than 70%.
For `Cc1cc2ccnn2c(C(=O)NCC(C)(C)C)c1NC(=O)c1cc(Br)nn1-c1ncccc1Cl` [Compound 175, 6-(3-bromo-1-(3-chloropyridin-2-yl)-1H-pyrazole-5-carboxamido)-5-methyl-N-neopentylpyrazolo[1,5-a]pyridine-7-carboxamide], the mortality at 300 ppm was greater than 70%.
Work on `COc1cc(C(=O)Nc2c(Br)cc3ccnn3c2C(=O)NCC2CC2)n(-c2ncccc2Cl)n1` [Compound 123, 5-bromo-6-(1-(3-chloropyridin-2-yl)-3-methoxy-1H-pyrazole-5-carboxamido)-N-(cyclopropylmethyl)pyrazolo[1,5-a]pyridine-7-carboxamide] yielded a mortality at 300 ppm greater than 70%.
With `CCNC(=O)c1c(NC(=O)c2cc(C(F)(F)F)nn2-c2ncccc2Cl)c(Br)cc2ccnn12` [Compound 127, 5-bromo-6-(1-(3-chloropyridin-2-yl)-3-(trifluoromethyl)-1H-pyrazole-5-carboxamido)-N-ethylpyrazolo[1,5-a]pyridine-7-carboxamide] the mortality at 300 ppm was greater than 70%.
For `COc1cc(C(=O)Nc2c(C)cc3ccnn3c2C(=O)NCC2CCCCO2)n(-c2ncccc2Cl)n1` (centres unmarked) [Compound 213, 6-(1-(3-chloropyridin-2-yl)-3-methoxy-1H-pyrazole-5-carboxamido)-5-methyl-N-((tetrahydro-2H-pyran-2-yl)methyl)pyrazolo[1,5-a]pyridine-7-carboxamide], the mortality at 300 ppm was greater than 70%.
`CCONC(=O)c1c(NC(=O)c2cc(OCC(F)(F)F)nn2-c2ncccc2Cl)c(C)cc2ccnn12` [Compound 115, 6-(1-(3-chloropyridin-2-yl)-3-(2,2,2-trifluoroethoxy)-1H-pyrazole-5-carboxamido)-N-ethoxy-5-methylpyrazolo[1,5-a]pyridine-7-carboxamide] gave a mortality at 300 ppm greater than 70%.
For `Cc1cc2ccnn2c(C(=O)NC2(C)COC2)c1NC(=O)c1cc(Br)nn1-c1ncccc1Cl` [Compound 173, 6-(3-bromo-1-(3-chloropyridin-2-yl)-1H-pyrazole-5-carboxamido)-5-methyl-N-(3-methyloxetan-3-yl)pyrazolo[1,5-a]pyridine-7-carboxamide], the mortality at 300 ppm was greater than 70%.
Compound `COc1cc(C(=O)Nc2c(C)cc3ccnn3c2C(=O)NCc2nccs2)n(-c2ncccc2Cl)n1` [Compound 204, 6-(1-(3-chloropyridin-2-yl)-3-methoxy-1H-pyrazole-5-carboxamido)-5-methyl-N-(thiazol-2-ylmethyl)pyrazolo[1,5-a]pyridine-7-carboxamide] has a mortality at 300 ppm greater than 70%.
`COc1cc(C(=O)Nc2c(Br)cc3ccnn3c2C(=O)NC2CC2)n(-c2ncccc2Cl)n1` [Compound 122, 5-bromo-6-(1-(3-chloropyridin-2-yl)-3-methoxy-1H-pyrazole-5-carboxamido)-N-cyclopropylpyrazolo[1,5-a]pyridine-7-carboxamide] was tested, and the mortality at 300 ppm was greater than 70%.
In the case of `Cc1cc2ccnn2c(C(=O)NCC2CCCC2)c1NC(=O)c1cc(Br)nn1-c1ncccc1Cl` [Compound 194, 6-(3-bromo-1-(3-chloropyridin-2-yl)-1H-pyrazole-5-carboxamido)-N-(cyclopentylmethyl)-5-methylpyrazolo[1,5-a]pyridine-7-carboxamide], the mortality at 300 ppm is reported as greater than 70%.
With `Cc1cc2ccnn2c(C(=O)NC2(C)CC2)c1NC(=O)c1cc(Br)nn1-c1ncccc1Cl` [Compound 172, 6-(3-bromo-1-(3-chloropyridin-2-yl)-1H-pyrazole-5-carboxamido)-5-methyl-N-(1-methylcyclopropyl)pyrazolo[1,5-a]pyridine-7-carboxamide] the mortality at 300 ppm was greater than 70%.
Work on `Cc1cc2ccnn2c(C(=O)NC(C)C(C)C)c1NC(=O)c1cc(Br)nn1-c1ncccc1Cl` (centres unmarked) [Compound 191, 6-(3-bromo-1-(3-chloropyridin-2-yl)-1H-pyrazole-5-carboxamido)-5-methyl-N-(3-methylbutan-2-yl)pyrazolo[1,5-a]pyridine-7-carboxamide] yielded a mortality at 300 ppm greater than 70%.
For `COCCNC(=O)c1c(NC(=O)c2cc(OC3CSC3)nn2-c2ncccc2Cl)c(C)cc2ccnn12` [Compound 161, 6-(1-(3-chloropyridin-2-yl)-3-(thietan-3-yloxy)-1H-pyrazole-5-carboxamido)-N-(2-methoxyethyl)-5-methylpyrazolo[1,5-a]pyridine-7-carboxamide], the mortality at 300 ppm was greater than 70%.
In the case of `O=C(Nc1c(Cl)cc2ccnn2c1C(=O)NCC(F)(F)F)c1cc(Br)nn1-c1ncccc1Cl` [Compound 143, 6-(3-bromo-1-(3-chloropyridin-2-yl)-1H-pyrazole-5-carboxamido)-5-chloro-N-(2,2,2-trifluoroethyl)pyrazolo[1,5-a]pyridine-7-carboxamide], the mortality at 300 ppm is reported as greater than 70%.
In the case of `CCCNC(=O)c1c(NC(=O)c2cc(Cn3nnc(C(F)(F)F)n3)nn2-c2ncccc2Cl)c(Cl)cc2ccnn12` [Compound 155, 5-chloro-6-(1-(3-chloropyridin-2-yl)-3-((5-(trifluoromethyl)-2H-tetrazol-2-yl)methyl)-1H-pyrazole-5-carboxamido)-N-propylpyrazolo[1,5-a]pyridine-7-carboxamide], the mortality at 300 ppm is reported as greater than 70%.
For `CCCNC(=O)c1c(NC(=O)c2cc(OC)nn2-c2ncccc2Cl)c(Br)cc2ccnn12` [Compound 120, 5-bromo-6-(1-(3-chloropyridin-2-yl)-3-methoxy-1H-pyrazole-5-carboxamido)-N-propylpyrazolo[1,5-a]pyridine-7-carboxamide], the mortality at 300 ppm was greater than 70%.
In the case of `COc1cc(C(=O)Nc2c(C)cc3ccnn3c2C(=O)NCCC(C)C)n(-c2ncccc2Cl)n1` [Compound 211, 6-(1-(3-chloropyridin-2-yl)-3-methoxy-1H-pyrazole-5-carboxamido)-N-isopentyl-5-methylpyrazolo[1,5-a]pyridine-7-carboxamide], the mortality at 300 ppm is reported as greater than 70%.
